The experiment concerns newly diagnosed multiple myeloma patients. Briefly: Total Therapy 2 (TT2) clinical trial, multivariate Cox regression of overall and event-free survival. In kind it is in vivo, human. How it is done:
Purified plasma cells (PCs) were obtained from newly diagnosed multiple myeloma patients who were treated on NIH-sponsored clinical trials UARK 98-026 (Total Therapy 2, TT2) (n=351) and UARK 03-033 (Total Therapy 3, TT3) (n=214). Both protocols utilized induction regimens, followed by melphalan-based tandem autotransplants, consolidation chemotherapy and maintenance treatment.
The Kaplan-Meier method was to estimate OS. OS was defined as the time from the date of registration until death from any cause; survivors were censored at the time of last contact. Significance analysis of microarray (SAM) was used to determine statistically significant expression changes of genes in high- and low-TP53-expressing MM plasma cells. Univariate and multivariate analyses of prognostic factors were performed with the Cox regression.
The details of TT2 and TT3 protocols and their overall results have been reported previously; however, results related to 177 additional patients treated in a TT3 successor protocol to validate bortezomib pharmaco-genomic data have not been reported. The median follow-up times for TT2 and TT3 are 7.2 and 3.9 years, respectively. Both protocols and their revisions had been approved by the Institutional Review Board, and patients had signed a written informed consent in keeping with institutional and federal policies.
The Kaplan-Meier method was used to estimate overall and event-free survival with group comparisons made using the log-rank test. Overall survival and event-free survival were measured from the date of registration until death from any cause and disease relapse or death from any cause, respectively; survivors were censored at the time of last contact. Univariate and multivariate analyses of prognostic factors were carried out using Cox regression models.

Setting [1] is: TT2, randomization to thalidomide, 170/341 patients, multivariate analysis, median follow-up 7.2 years (Table 5).

As to `O=C1CCC(N2C(=O)c3ccccc3C2=O)C(=O)N1` (stereo not shown) [Thalidomide], the “effect of randomization on event-free and overall survival” value (TT2, in words) is on record as “beneficial effect”. Further, the “Event-Free Survival HR (95% CI)” value (TT2, randomization to thalidomide, 166/334 patients, multivariate analysis (Table 2)) is listed as 0.75 (0.60, 0.93). For the same compound, under setting [1], the “Event-free survival HR” value worked out at 0.61 and the “Overall Survival HR” value was 0.70.

These data come from patent publication US20100152136A1 (priority 2006, published 2010).
